Consider 11 compounds from ChEMBL document CHEMBL1201862, “PubChem BioAssay data set” (2004).

The structures appear in SMILES notation.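 Five concentrations, 48 hours, 96-well plates. GI50 is the concentration that inhibits growth by half.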 Active and inactive are the calls of the source. Cut-off read from the data, not from the text of the source: active = GI50 up to about 1.1 µM and inactive = higher.

Test systems include TK-10; HCC 2998; MOLT-4; NCI-H460; RPMI-8226; SK-OV-3; NCI-H23; IGROV-1; HCT-15; A549; U-251; OVCAR-5; OVCAR-8; NCI-H522; HOP-92.
What all share (test): NCI anticancer screen, dose series, 48 h

For the compound `S=C(Nc1ccccc1)N1N=C2c3ccccc3CC[C@H]2[C@@H]1c1ccccc1`, the GI50 is > 100 µM (inactive) in the assay with TK-10; > 100 µM (inactive) with HCC 2998; 4 µM (inactive) in the assay on MOLT-4; 3.64 µM (inactive) with NCI-H460; 4.34 µM (inactive) in the assay with RPMI-8226; 2.22 µM (inactive) with SK-OV-3. The GI50 with NCI-H23 is 5.27 µM (inactive); in the assay with IGROV-1, 4.54 µM (inactive); with HCT-15, 2.02 µM; in the assay with A549, 4.66 µM (inactive); in the assay on U-251 it was 7.59 µM (inactive); in the assay on OVCAR-5, > 100 µM (inactive). Also, the values for the GI50 in the assay with OVCAR-8 and in the assay with NCI-H522 were 10.3 µM (inactive) and 0.581 µM (active), respectively.

As to `Cn1cc(NC(=O)c2cc(NC(=O)CCCCCCCCCC(=O)Nc3cc(C(=O)Nc4cc(C(=O)NCCC(=N)N)n(C)c4)n(C)c3)cn2C)cc1C(=O)NCCC(=N)N`, the GI50 in the assay with TK-10 was 22.7 µM (inactive); in the assay with HOP-92, 16.4 µM (inactive); with MOLT-4 it was 25.1 µM (inactive); in the assay on NCI-H460 it was 23.9 µM (inactive); with RPMI-8226, 8.26 µM (inactive); in the assay on SK-OV-3, 92 µM (inactive). Also, the GI50 in the assay with NCI-H23 is 34.8 µM (inactive); in the assay with IGROV-1, 41.5 µM (inactive); in the assay on HCT-15, 39.3 µM; in the assay with A549, 18.7 µM (inactive); with U-251, 27.4 µM (inactive); with OVCAR-5, 32.7 µM (inactive). Also, the GI50 is 25.7 µM (inactive) in the assay on OVCAR-8 and 11 µM (inactive) with NCI-H522.

For `CCOP(=O)(OCC)OC1C=CC2CCC1C2` (stereo unspecified), the GI50 in the assay on TK-10 is > 100 µM (inactive); in the assay on HCC 2998 it was > 100 µM (inactive); in the assay on MOLT-4, > 100 µM (inactive); in the assay on NCI-H460, > 100 µM (inactive); in the assay with RPMI-8226, 28.1 µM (inactive); in the assay with SK-OV-3, > 100 µM (inactive). For the same compound, the GI50 with NCI-H23 is > 100 µM (inactive); with IGROV-1 it was > 100 µM (inactive); in the assay on HCT-15 it was 20.7 µM; with A549, > 100 µM (inactive); in the assay on U-251 it was > 100 µM (inactive); with OVCAR-5 it was > 100 µM (inactive). Also, the GI50 in the assay on OVCAR-8 and with NCI-H522 was > 100 µM (inactive) in each case.

As to `C#Cc1cc(CN(CC(=O)OC(C)(C)C)CC(=O)OC(C)(C)C)nc(CN(CC(=O)OC(C)(C)C)CC(=O)OC(C)(C)C)c1`, the GI50 in the assay with TK-10 was 17.3 µM (inactive); in the assay with HCC 2998, 4.31 µM (inactive); in the assay on MOLT-4, 2.62 µM (inactive); in the assay with NCI-H460 it was 7.23 µM (inactive); with RPMI-8226, 2.75 µM (inactive); in the assay with SK-OV-3 it was 6.55 µM (inactive). In addition, the GI50 is 4.74 µM (inactive) with NCI-H23; 7.66 µM (inactive) with IGROV-1; 24.6 µM with HCT-15; 7.85 µM (inactive) in the assay with A549; 5.07 µM (inactive) with U-251; 21.6 µM (inactive) in the assay with OVCAR-5. For the same compound, the GI50 with OVCAR-8 is 5.24 µM (inactive); in the assay on NCI-H522 it was 2.01 µM (inactive).

`O=C1[C@@H]2C(c3ccc(Cl)cc3Cl)=NO[C@@H]2C(=O)N1c1ccc(Cc2ccc(N3C(=O)[C@H]4C(c5ccc(Cl)cc5Cl)=NO[C@H]4C3=O)cc2)cc1`: the GI50 with TK-10 was 51.8 µM (inactive); in the assay with HCC 2998 it was > 100 µM (inactive); in the assay on HOP-92, 17.7 µM (inactive); in the assay on MOLT-4 it was 17.3 µM (inactive); with RPMI-8226, 21.2 µM (inactive); with SK-OV-3, > 100 µM (inactive). In addition, the GI50 in the assay on NCI-H23 is > 100 µM (inactive); with IGROV-1, 70 µM (inactive); in the assay with HCT-15, 46.6 µM; in the assay with A549, > 100 µM (inactive); with OVCAR-5, > 100 µM (inactive); with OVCAR-8 it was 40.7 µM (inactive).

For `Cc1cc(NS(=O)(=O)c2ccc(NC(=O)c3cccc4c(Nc5ccc(S(=O)(=O)Nc6cc(C)on6)cc5)c5ccccc5nc34)cc2)no1`, the GI50 with HOP-92 is 17.5 µM (inactive); in the assay on MOLT-4 it was 34.1 µM (inactive); with NCI-H460 it was > 100 µM (inactive); in the assay with RPMI-8226, 64.4 µM (inactive); in the assay on SK-OV-3, > 100 µM (inactive); with NCI-H23, 44.5 µM (inactive). Also, the GI50 in the assay on IGROV-1 is 27.7 µM (inactive); with HCT-15, over 100 µM; in the assay on A549, > 100 µM (inactive); with U-251, 30.5 µM (inactive); in the assay with OVCAR-5, > 100 µM (inactive); with OVCAR-8, 70.3 µM (inactive). For the same compound, the GI50 with NCI-H522 is 20 µM (inactive).

`Cc1ccccc1CN1CC=c2ccccc2=N1`: the GI50 with TK-10, in the assay with HCC 2998, in the assay on HOP-92, in the assay on NCI-H460, in the assay on RPMI-8226 and in the assay on SK-OV-3 was > 100 µM (inactive) in each case. The GI50 with NCI-H23 was > 100 µM (inactive); in the assay with IGROV-1, > 100 µM (inactive); in the assay on HCT-15, over 100 µM; in the assay with A549 it was 93.5 µM (inactive); in the assay on U-251, > 100 µM (inactive); in the assay on OVCAR-5 it was > 100 µM (inactive). Further, in the assay with OVCAR-8, the GI50 is > 100 µM (inactive).

As for `COC(=O)C(CCC1(C)OCCO1)C(C)=O` (stereo unspecified), the GI50 with TK-10, in the assay with HCC 2998, in the assay with MOLT-4, with NCI-H460, in the assay on SK-OV-3 and in the assay on NCI-H23 was > 100 µM (inactive) throughout. The GI50 was > 100 µM (inactive) in the assay on IGROV-1; over 100 µM with HCT-15; > 100 µM (inactive) in the assay on A549; > 100 µM (inactive) in the assay with U-251; > 100 µM (inactive) in the assay on OVCAR-5; > 100 µM (inactive) in the assay on OVCAR-8. In addition, the GI50 in the assay on NCI-H522 was > 100 µM (inactive).

Turning to `CN1CCS(=O)(=O)NC(Cc2ccccc2)C(=O)N2CCCC2C1=O` (stereo unspecified), the GI50 in the assay on TK-10, in the assay on HCC 2998, with MOLT-4, in the assay with RPMI-8226, in the assay on SK-OV-3 and with NCI-H23 was > 100 µM (inactive) each time. In addition, the GI50 in the assay with IGROV-1 is > 100 µM (inactive); in the assay on HCT-15, over 100 µM; in the assay with A549, > 100 µM (inactive); in the assay with U-251, > 100 µM (inactive); in the assay with OVCAR-5, > 100 µM (inactive); in the assay on OVCAR-8, > 100 µM (inactive). Also, in the assay on NCI-H522, the GI50 was > 100 µM (inactive).

Regarding `CC1C[C@H](OC(N)=O)C(C)CC1=O` (stereo partly specified), the GI50 was > 100 µM (inactive) in the assay on TK-10; > 100 µM (inactive) in the assay with HCC 2998; 30.2 µM (inactive) with HOP-92; > 100 µM (inactive) with MOLT-4; > 100 µM (inactive) in the assay on NCI-H460; > 100 µM (inactive) in the assay with RPMI-8226. The GI50 was > 100 µM (inactive) with SK-OV-3; > 100 µM (inactive) with NCI-H23; > 100 µM (inactive) with IGROV-1; over 100 µM in the assay with HCT-15; > 100 µM (inactive) in the assay on A549; > 100 µM (inactive) with U-251. Also, the GI50 in the assay on OVCAR-5 and in the assay on OVCAR-8 was > 100 µM (inactive) each time.

As for `COc1cc(CCc2ccc(OC(C)=O)cc2)cc(OC)c1OC`, the GI50 in the assay with TK-10 is > 100 µM (inactive); in the assay with HOP-92 it was 49 µM (inactive); with MOLT-4, > 100 µM (inactive); in the assay on NCI-H460 it was > 100 µM (inactive); in the assay with RPMI-8226 it was 86.3 µM (inactive); in the assay with IGROV-1 it was > 100 µM (inactive). Moreover, the GI50 was over 100 µM in the assay with HCT-15; > 100 µM (inactive) in the assay with A549; > 100 µM (inactive) in the assay on U-251; 72.4 µM (inactive) with OVCAR-5; > 100 µM (inactive) with OVCAR-8; 52 µM (inactive) in the assay with NCI-H522.
